{
  "source": "PubChem BioAssay (NCI)",
  "key": {"P388/ADR leukemia": {"tested_on": "P388/ADR leukemia", "assay": "NCI tumour cell line growth inhibition, 48 h"}, "SN12K1 renal": {"tested_on": "SN12K1 renal", "assay": "NCI tumour cell line growth inhibition, 48 h"}},
  "note": "Values joined by “and” are separate entries in the source; they are usually repeats but may differ in a detail not shown here. Equal entries are not always repeated.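 Method: 48-hour compound exposure of cells in 96-well plates, five concentrations, linear interpolation of endpoints. The concentration for 50% growth inhibition is given as GI50. TGI: total growth inhibition.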",
  "data": [
    {"smiles": "Cc1[nH]c(=O)[nH]c(=O)c1N(CCF)CCCl", "values": [
      {"measurement": "GI50", "setting": "P388/ADR leukemia", "value": 242, "unit": "µM"},
      {"measurement": "TGI", "setting": "P388/ADR leukemia", "value": "557 µM and 1110 µM"},
      {"measurement": "GI50", "setting": "SN12K1 renal", "value": 187, "unit": "µM"},
      {"measurement": "TGI", "setting": "SN12K1 renal", "value": "513 µM and 703 µM and 657 µM"}
    ]}
  ]
}
